{"source": "patent US20080200527A1", "about": "“Cannabinoid Receptor Modulators” (Carex SA, priority 2005, published 2008)", "origin": "cited, not measured here", "tested_on": "absorption of dietary fat", "settings": "in vivo"}
{"smiles": "CCCCCCCCCCC[C@@H](C[C@@H]1OC(=O)[C@H]1CCCCCC)OC(=O)[C@H](CC(C)C)NC=O", "note": "[orlistat]", "values": [{"measurement": "block of the absorption of dietary fat", "value": "up to 30%"}]}
